{"source": "patent US3968207A", "about": "“Method of controlling fleas and ticks on cats and dogs” (priority 1975, dated 1976)", "tested_on": "Ctenocephalides felis", "test": "2% powder for control of flea infestations on dogs", "type": "in vivo", "details": "for Percent of Dogs with Control / Number of Dogs on Which Fleas were Controlled: 20 mg/kg 2% powder; for Average Dead in Treated / No. of Dead Fleas Recovered in 48 Hrs.: 20 mg/kg; for No. of Dead Fleas Recovered in 48 Hrs.: Trial 1, individual dogs", "protocol": "An experiment was carried out to determine the activity of O,O,O',O'-tetramethyl O,O'-thiodi-p-phenylene phosphorothioate 2% powder for the control of Ctenocephalides felis infestations on dogs. A group of 40 dogs of mixed breeds were obtained from a licensed laboratory animal dealer and housed in individual cages. The 2% powder was formulated from a 25% dust concentrate containing […] O,O,O',O'-tetramethyl O,O'-thiodi-p-phenylene phosphorothioate, 24% celite 209 and 50% acidic kaolin. Talc was used to dilute the concentrate to 2% active ingredient. Each dog was infested with 100 1 day old adult C. felis 72 hours prior to treatment and reinfested on a weekly basis for 6 weeks beginning 7 days after treatment. Each dog was treated with 20 mg. actual drug per kg. body weight formulated as a 2% powder. Five or more dogs were treated with a blank powder and used as infested controls. Table XV summarizes average dead fleas in treated versus average dead fleas in control.", "note": "Several values for one entry are separate records, joined by “and”; a condition that tells them apart may be missing. Equal entries are not always repeated.", "data": [{"smiles": "COP(=S)(OC)Oc1ccc(Sc2ccc(OP(=S)(OC)OC)cc2)cc1", "note": "[O,O,O',O'-tetramethyl O,O'-thiodi-p-phenylene phosphorothioate]", "values": [{"measurement": "Percent of Dogs with Control", "setting": "week 0", "result": 100, "unit": "%"}, {"measurement": "Percent of Dogs with Control", "setting": "week 1", "result": 100, "unit": "%"}, {"measurement": "Percent of Dogs with Control", "setting": "week 2", "result": 100, "unit": "%"}, {"measurement": "Percent of Dogs with Control", "setting": "week 3", "result": 100, "unit": "%"}, {"measurement": "Percent of Dogs with Control", "setting": "week 4", "result": 92.5, "unit": "%"}, {"measurement": "Percent of Dogs with Control", "setting": "week 5", "result": 80, "unit": "%"}, {"measurement": "Percent of Dogs with Control", "setting": "week 6", "result": 45, "unit": "%"}, {"measurement": "Number of Dogs on Which Fleas were Controlled", "setting": "Combination of Test 1 & 2, week 0, of 40", "result": 40, "unit": "dogs"}, {"measurement": "Number of Dogs on Which Fleas were Controlled", "setting": "Combination of Test 1 & 2, week 1, of 40", "result": 40, "unit": "dogs"}, {"measurement": "Number of Dogs on Which Fleas were Controlled", "setting": "Combination of Test 1 & 2, week 2, of 40", "result": 40, "unit": "dogs"}, {"measurement": "Number of Dogs on Which Fleas were Controlled", "setting": "Combination of Test 1 & 2, week 3, of 40", "result": 40, "unit": "dogs"}, {"measurement": "Number of Dogs on Which Fleas were Controlled", "setting": "Combination of Test 1 & 2, week 4, of 40", "result": 37, "unit": "dogs"}, {"measurement": "Number of Dogs on Which Fleas were Controlled", "setting": "Combination of Test 1 & 2, week 5, of 40", "result": 32, "unit": "dogs"}, {"measurement": "Number of Dogs on Which Fleas were Controlled", "setting": "Combination of Test 1 & 2, week 6, of 40", "result": 18, "unit": "dogs"}, {"measurement": "Number of Dogs on Which Fleas were Controlled", "setting": "Experiment 1, week 0, of 20", "result": 20, "unit": "dogs"}, {"measurement": "Number of Dogs on Which Fleas were Controlled", "setting": "Experiment 1, week 1, of 20", "result": 20, "unit": "dogs"}, {"measurement": "Number of Dogs on Which Fleas were Controlled", "setting": "Experiment 1, week 2, of 20", "result": 20, "unit": "dogs"}, {"measurement": "Number of Dogs on Which Fleas were Controlled", "setting": "Experiment 1, week 3, of 20", "result": 20, "unit": "dogs"}, {"measurement": "Number of Dogs on Which Fleas were Controlled", "setting": "Experiment 1, week 4, of 20", "result": 17, "unit": "dogs"}, {"measurement": "Number of Dogs on Which Fleas were Controlled", "setting": "Experiment 1, week 5, of 20", "result": 14, "unit": "dogs"}, {"measurement": "Number of Dogs on Which Fleas were Controlled", "setting": "Experiment 1, week 6, of 20", "result": 5, "unit": "dogs"}, {"measurement": "Number of Dogs on Which Fleas were Controlled", "setting": "Experiment 2, week 0, of 20", "result": 20, "unit": "dogs"}, {"measurement": "Number of Dogs on Which Fleas were Controlled", "setting": "Experiment 2, week 1, of 20", "result": 20, "unit": "dogs"}, {"measurement": "Number of Dogs on Which Fleas were Controlled", "setting": "Experiment 2, week 2, of 20", "result": 20, "unit": "dogs"}, {"measurement": "Number of Dogs on Which Fleas were Controlled", "setting": "Experiment 2, week 3, of 20", "result": 20, "unit": "dogs"}, {"measurement": "Number of Dogs on Which Fleas were Controlled", "setting": "Experiment 2, week 4, of 20", "result": 20, "unit": "dogs"}, {"measurement": "Number of Dogs on Which Fleas were Controlled", "setting": "Experiment 2, week 5, of 20", "result": 18, "unit": "dogs"}, {"measurement": "Number of Dogs on Which Fleas were Controlled", "setting": "Experiment 2, week 6, of 20", "result": 13, "unit": "dogs"}, {"measurement": "Average Dead in Treated", "setting": "Test 1, week 0, control 6.2", "result": 31.5}, {"measurement": "Average Dead in Treated", "setting": "Test 1, week 2, control 4.8", "result": 40.4}, {"measurement": "Average Dead in Treated", "setting": "Test 1, week 6, control 3.2", "result": 18.0}, {"measurement": "Average Dead in Treated", "setting": "Test 2, week 0, control 11.8", "result": 43.5}, {"measurement": "No. of Dead Fleas Recovered in 48 Hrs.", "setting": "week 0", "result": "18 and 44 and 41 and 34 and 26 and 38 and 28 and 50 and 21 and 22 and 40 and 24 and 25"}, {"measurement": "No. of Dead Fleas Recovered in 48 Hrs.", "setting": "week 1", "result": "30 and 44 and 53 and 43 and 14 and 37 and 26 and 74 and 49 and 57 and 33 and 31 and 38"}, {"measurement": "No. of Dead Fleas Recovered in 48 Hrs.", "setting": "week 2", "result": "54 and 39 and 55 and 40 and 27 and 64 and 31 and 44 and 38 and 32 and 43 and 50 and 42"}, {"measurement": "No. of Dead Fleas Recovered in 48 Hrs.", "setting": "week 3", "result": "37 and 36 and 47 and 43 and 35 and 42 and 33 and 63 and 44 and 60 and 29"}, {"measurement": "No. of Dead Fleas Recovered in 48 Hrs.", "setting": "week 4", "result": "43 and 46 and 48 and 25 and 8 and 21 and 35 and 61 and 24 and 34 and 6 and 26 and 42"}, {"measurement": "No. of Dead Fleas Recovered in 48 Hrs.", "setting": "week 5", "result": "35 and 63 and 48 and 16 and 5 and 21 and 11 and 36 and 14 and 46 and 39"}, {"measurement": "No. of Dead Fleas Recovered in 48 Hrs.", "setting": "week 6", "result": "5 and 49 and 63 and 10 and 3 and 1 and 23 and 19 and 6 and 7 and 27 and 35"}]}]}
